From patent US7569587B2, “Antibacterial mutilins” (Nabriva Therapeutics AG, priority 2000, dated 2009)

system: Staphylococcus; assay: Systemic infections of mice (Handbook of animal models of infection); assay type: in vivo; conditions: parenteral or oral administration, Probit analysis
Source text: The active compounds of the present invention show e.g. activity in systemic infections of mice determined according to the Handbook of animal models of infection.
ED50=Effective dosage in mg/kg body weight per application by which 50% of the treated animals are protected from death; calculated by Probit analysis (n=8 animals/group).

**Q.** For C=CC1(C)CC(OC(=O)CSC2CCN(C(=O)[C@H](N)Cc3c[nH]cn3)C2)C2(C)C(C)CCC3(CCC(=O)C32)C(C)C1O (stereo partly drawn) [Example 6, 4-O—[(N—(R)-histidinyl-pyrrolidin-3-yl)sulfanylacetyl]mutilin], which “ED50 (dosage by which 50% of the treated animals are protected from death)” value is on record?
**A.** The value was “about 11.0 mg/kg body weight”.

**Q.** For C=CC1(C)CC(OC(=O)CS[C@H]2CCCN(C(=O)[C@H](N)C(C)C)C2)C2(C)C(C)CCC3(CCC(=O)C32)C(C)C1O (stereo partly drawn) [Example 1], which “ED50 (dosage by which 50% of the treated animals are protected from death)” value is on record?
**A.** The value was about 7.0 mg/kg body weight.

**Q.** How did the “ED50 (dosage by which 50% of the treated animals are protected from death)” value turn out when C=CC1(C)CC(OC(=O)CSC2CCN(C(=O)[C@H](N)C(C)C)C2)C2(C)C(C)CCC3(CCC(=O)C32)C(C)C1O (stereo partly drawn) [Example 5, 14-O—[(N-(3-methyl-2(R)-amino-butyryl)-pyrrolidine-3-yl)-sulfanylacetyl]-mutilin] was run?
**A.** Its value is “about 11.0 mg/kg body weight”.
